The source of these data is publication PMC3155955 (Bioorganic & medicinal chemistry letters, 2011).

The subject of assay [1] is HCT-116 human colon cancer cells. Briefly: MTS cytotoxicity assay, HCT-116. The class given is cell-based.
Assay [2] has as its system Caco-2 human colon cancer cells. Description: MTS cytotoxicity assay, Caco-2. The class given is cell-based. To be noted: Caco-2, read-out: IC50 (consistent values of the control).
The subject of assay [3] is CCD-18Co normal colon fibroblasts. Briefly: MTS cytotoxicity assay, CCD-18Co. It is filed as cell-based, human. To be noted: colon cancer cells (HCT-116, Caco-2) vs CCD-18Co.

With `COc1cc2c3c(c1O)-c1cc4c(cc1C[C@@H]3N(C)CC2)OCO4` [Compound 1, domesticine], the “fold less potent than the benchmark etoposide” value in assay [1] (HCT-116 cell line) is given as “approximately 3 fold”.

On to `COc1cc([C@@H]2c3cc4c(cc3[C@@H](O[C@@H]3O[C@@H]5CO[C@@H](C)O[C@H]5[C@H](O)[C@H]3O)[C@H]3COC(=O)[C@H]23)OCO4)cc(OC)c1O` [etoposide], for which the IC50 lay in the range of 15 to 25 µM in assay [1] (Homo sapiens, HCT-116, read-out: IC50 (consistent values of the control)) and 15 to 25 µM in assay [2]. `CCC(CC)COc1c(OC)cc2c3c1-c1cc4c(cc1C[C@@H]3N(C)CC2)OCO4` [Compound 3]: the “selectivity for colon cancer cells vs normal colon fibroblasts (CCD-18Co)” value in assay [3] was “approximately 2 fold”.
